“Also recorded” adds a separate entry of the source.
Tested on: microorganisms
Assay: Targeting peptide binding to target microorganisms (Tables 3, 10, 12)
Details: preferably 1x PBS; for Target(s) (microorganism bound by the targeting peptide): peptide binding in aqueous buffers that varied with peptide solubility; for Target(s): microorganism(s) the targeting peptide binds, binding in aqueous buffers that varied with peptide solubility

Substance: 1T-125 (DAITGGNPPLSDTDGLRP; Peptide with targeting and/or antimicrobial activity)
- Target(s) (microorganism bound by the targeting peptide): S. epidermidis; also recorded: S. gordonii; also recorded: S. mutans; also recorded: S. oralis

Substance: 1T-126 (QGLARPVLRRIPL; Peptide with targeting and/or antimicrobial activity)
- Target(s) (microorganism bound by the targeting peptide): S. gordonii; also recorded: S. mitis; also recorded: S. mutans

Substance: 1T-139 (AVAGAAVGALLGNDARSTAVGAAIGGALGAGAGELTKNK; Peptide with targeting and/or antimicrobial activity)
- Target(s) (microorganism bound by the targeting peptide): A. naeslundii; also recorded: S. gordonii; also recorded: S. mitis; also recorded: S. mutans; also recorded: S. oralis

Substance: 1T-141 (KKFIILLFILVQGLIFSATKTLSDIIAL; Peptide with targeting and/or antimicrobial activity)
- Target(s) (microorganism bound by the targeting peptide): F. nucleatum; also recorded: P. gingivalis; also recorded: S. epidermidis; also recorded: S. gordonii; also recorded: S. mitis; also recorded: S. mutans; also recorded: S. oralis; also recorded: S. sanguinis

Substance: 1T-145 (VEAGKRNISLENIEKISKGLGISISELFKYIEEGEDKIG; Peptide with targeting and/or antimicrobial activity)
- Target(s) (microorganism bound by the targeting peptide): S. mitis; also recorded: S. mutans; also recorded: S. oralis

Substance: 1T-154 (YFSFLEIVGMARR; Peptide with targeting and/or antimicrobial activity)
- Target(s) (microorganism bound by the targeting peptide): P. gingivalis

Substance: 1T-159 (IFSLHHFALICSEMGTFAVSKRAKYKWEVL; Peptide with targeting and/or antimicrobial activity)
- Target(s) (microorganism bound by the targeting peptide): P. gingivalis

Substance: 1T-170 (AYGKVFSMDIMLSENDKLIVLRISHHSAWH; Peptide with targeting and/or antimicrobial activity)
- Target(s) (microorganism bound by the targeting peptide): P. gingivalis

Substance: 1T-177 (GTNVPTQILGYSREERFDYEPAPEQR; Peptide with targeting and/or antimicrobial activity)
- Target(s) (microorganism bound by the targeting peptide): P. gingivalis; also recorded: S. gordonii; also recorded: S. mitis; also recorded: S. mutans; also recorded: S. oralis; also recorded: S. salivarious; also recorded: S. sanguinis

Substance: 1T-185 (HYHFLLEFGFHKGDYLE; Peptide with targeting and/or antimicrobial activity)
- Target(s): S. mitis; also recorded: S. mutans; also recorded: S. oralis; also recorded: S. salivarious; also recorded: S. sanguinis
- Target(s) (microorganism bound by the targeting peptide): A. naeslundii; also recorded: F. nucleatum; also recorded: P. gingivalis; also recorded: T. denticola; also recorded: S. gordonii

Substance: 1T-188 (HRKDVYKK; Peptide with targeting and/or antimicrobial activity)
- Target(s): S. sanguinis

Substance: 1T-192 (ILVLLALQVELDSKFQY; Peptide with targeting and/or antimicrobial activity)
- Target(s): S. sanguinis

Substance: 1T-193 (LMIFDKHANLKYKYGNRSFGVEAIM; Peptide with targeting and/or antimicrobial activity)
- Target(s): S. sanguinis

Substance: 1T-195 (AASGFTYCASNGVWHPY; Peptide with targeting and/or antimicrobial activity)
- Target(s): S. mutans

Substance: 1T-196 (KPEKEKLDTNTLMKVVNKALSLFDRLLIKFGA; Peptide with targeting and/or antimicrobial activity)
- Target(s): F. nucleatum; also recorded: S. sanguinis

Substance: 1T-198 (MPVSKKRYMLSSAYATALGICYGQVATDEKESEITAIPDLLDYLSVEEYLL; Peptide with targeting and/or antimicrobial activity)
- Target(s): P. gingivalis; also recorded: S. epidermidis; also recorded: S. gordonii; also recorded: S. mitis; also recorded: S. mutans; also recorded: S. oralis; also recorded: S. sanguinis

Substance: 1T-199 (RAGRIKKLSQKEAEPFEN; Peptide with targeting and/or antimicrobial activity)
- Target(s): S. sanguinis

Substance: 1T-201 (KRKHENVIVAEEMRVIKN; Peptide with targeting and/or antimicrobial activity)
- Target(s): S. sanguinis

Substance: 1T-207 (SPLEKYGTGSMTALTFLLGCCLLVLSKKSR; Peptide with targeting and/or antimicrobial activity)
- Target(s): F. nucleatum; also recorded: S. sanguinis

Substance: 1T-215 (VCFKDISVFLSPFRGQEVLFCGKAKHSLIYVIGT; Peptide with targeting and/or antimicrobial activity)
- Target(s): S. sanguinis

Substance: 1T-216 (FFLNVIAIRIPHF; Peptide with targeting and/or antimicrobial activity)
- Target(s): S. sanguinis

Substance: 1T-217 (MLSNVLSRSVVSPNVDIPNSMVILSPLLISISNYH; Peptide with targeting and/or antimicrobial activity)
- Target(s): F. nucleatum; also recorded: S. sanguinis

Substance: 1T-218 (KLIFAALGLVFLLIGLRDSRSK; Peptide with targeting and/or antimicrobial activity)
- Target(s): F. nucleatum; also recorded: S. sanguinis

Substance: 1T-219 (RNINVSATFITEKSLV; Peptide with targeting and/or antimicrobial activity)
- Target(s): S. sanguinis

Substance: 1T-222 (RIEASLISAIMFSMFNAIVKFLQK; Peptide with targeting and/or antimicrobial activity)
- Target(s): F. nucleatum; also recorded: S. sanguinis

Substance: 1T-237 (EDPVPNHFTLRRNKKEKPSKS; Peptide with targeting and/or antimicrobial activity)
- Target(s): S. sanguinis

Substance: 1T-239 (ADDLLNKRLTDLIMENAETVKTIDLDNSD; Peptide with targeting and/or antimicrobial activity)
- Target(s): A. naeslundii; also recorded: S. gordonii; also recorded: S. mitis; also recorded: S. mutans; also recorded: S. oralis; also recorded: S. sanguinis

Substance: 1T-242 (KQVQNTTLIICGTVLLGILFKSYLKSQKSV; Peptide with targeting and/or antimicrobial activity)
- Target(s): F. nucleatum; also recorded: S. sanguinis

Substance: 1T-248 (IGGALNSCG; Peptide with targeting and/or antimicrobial activity)
- Target(s): S. sanguinis

Substance: 1T-249 (VFSVLKHTTWPTRKQSWHDFISILEYSAFFALVIFIFDKLLTLGLAELLKRF; Peptide with targeting and/or antimicrobial activity)
- Target(s): F. nucleatum; also recorded: S. sanguinis

Substance: 1T-250 (LVQGDTILIENHVGTPVKDDGKDCLIIREADVLAVVND; Peptide with targeting and/or antimicrobial activity)
- Target(s): S. mitis; also recorded: S. mutans; also recorded: S. oralis

Substance: 1T-252 (MKKNLKRFYALVLGFIIGCLFVSILIFIGY; Peptide with targeting and/or antimicrobial activity)
- Target(s): F. nucleatum; also recorded: S. sanguinis

Substance: 1T-256 (KGKSLMPLLKQINQWGKLYL; Peptide with targeting and/or antimicrobial activity)
- Target(s): S. sanguinis

Substance: 1T-258 (TINIDDKVLDYLKKINSKAITIDLIGCAS; Peptide with targeting and/or antimicrobial activity)
- Target(s): A. naeslundii; also recorded: F. nucleatum; also recorded: P. gingivalis; also recorded: T. denticola; also recorded: S. mitis; also recorded: S. mutans; also recorded: S. oralis

Substance: 1T-259 (EKLKKILLKLAVCGKAWYTL; Peptide with targeting and/or antimicrobial activity)
- Target(s): F. nucleatum; also recorded: P. gingivalis; also recorded: T. denticola; also recorded: S. mitis; also recorded: S. mutans; also recorded: S. oralis; also recorded: S. sanguinis

Substance: 1T-260 (NILYFIHDENQWEPQKAEIFRGSIKHCAWLSS; Peptide with targeting and/or antimicrobial activity)
- Target(s): A. naeslundii; also recorded: P. gingivalis; also recorded: S. epidermidis; also recorded: S. gordonii; also recorded: S. mitis; also recorded: S. mutans; also recorded: S. oralis; also recorded: S. sanguinis

Substance: 1T-261 (SFEKNKIENNLKIAQAYIYIKPKPRICQA; Peptide with targeting and/or antimicrobial activity)
- Target(s): F. nucleatum; also recorded: S. mutans; also recorded: S. oralis; also recorded: S. sanguinis

Substance: 1T-264 (LEGKFYMAEDFDKTPECFKDYV; Peptide with targeting and/or antimicrobial activity)
- Target(s): S. sanguinis

Substance: 1T-266 (RAGTWLVVDEIR; Peptide with targeting and/or antimicrobial activity)
- Target(s): S. sanguinis

Substance: 1T-267 (RIKEERKNRSYKFFIWRLFDEKTGFI; Peptide with targeting and/or antimicrobial activity)
- Target(s): A. naeslundii; also recorded: F. nucleatum; also recorded: P. gingivalis; also recorded: T. denticola; also recorded: S. mitis; also recorded: S. mutans; also recorded: S. oralis; also recorded: S. sanguinis

Substance: 1T-268 (PITPKKEKCGLGTYAPKNPVFSKSRV; Peptide with targeting and/or antimicrobial activity)
- Target(s): F. nucleatum; also recorded: S. mutans; also recorded: S. oralis; also recorded: S. sanguinis

Substance: 1T-269 (PLYVAAVEKINTAKKH; Peptide with targeting and/or antimicrobial activity)
- Target(s): F. nucleatum; also recorded: S. mutans; also recorded: S. oralis; also recorded: S. sanguinis

Substance: 1T-270 (VHEFDIQKILQNR; Peptide with targeting and/or antimicrobial activity)
- Target(s): F. nucleatum; also recorded: S. mutans; also recorded: S. oralis; also recorded: S. sanguinis
